Experiments:
Assay in all cases: relative viability (nuclei count vs DMSO), 5 days (fraction); higher = more cells survive
Vorinostat + Tozasertib = compound: O=C(CCCCCCC(=O)Nc1ccccc1)NO [Vorinostat] + Cc1cc(Nc2cc(N3CCN(C)CC3)nc(Sc3ccc(NC(=O)C4CC4)cc3)n2)n[nH]1 [Tozasertib] (partner 0.1 µM)
How it was run: (§1)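 Lung cancer cell lines were pin-tool dosed in 1536-well plates on the day after seeding, with either a lone drug or a fixed anchor-drug dose plus five library-drug doses (not always all listed) in √10 steps. Nuclei were counted on 4× images after 5 days. Relative viability is the ratio of treated-well to vehicle-well nuclei counts, with each value a median of duplicate plates.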

Vorinostat + OSI-027 = compound: O=C(CCCCCCC(=O)Nc1ccccc1)NO [Vorinostat] + COc1cccc2cc(-c3nc([C@H]4CC[C@H](C(=O)O)CC4)n4ncnc(N)c34)[nH]c12 [OSI-027] (partner 0.5 µM)
How it was run: as §1

Vorinostat + Linsitinib = compound: O=C(CCCCCCC(=O)Nc1ccccc1)NO [Vorinostat] + C[C@]1(O)C[C@@H](c2nc(-c3ccc4ccc(-c5ccccc5)nc4c3)c3c(N)nccn32)C1 [Linsitinib] (partner 1 µM)
How it was run: as §1

Vorinostat = compound: O=C(CCCCCCC(=O)Nc1ccccc1)NO [Vorinostat]
How it was run: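 For viability, nuclei in each treated well were divided by nuclei in vehicle wells and the median across plates was taken. Lung cancer cell lines in 1536-well plates were pinned with five library-drug doses (not always all listed) spaced by √10, cultured 5 days without medium change, and imaged at 4× after Hoechst staining, with plates passing only at control CV below 25% and at least one doubling.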

Row | Cell Line | relative viability (Vorinostat + Tozasertib; first compound 0.253 µM) | relative viability (Vorinostat + Tozasertib; first compound 0.8 µM) | relative viability (Vorinostat + Tozasertib; first compound 2.53 µM) | relative viability (Vorinostat + Tozasertib; first compound 8 µM) | relative viability (Vorinostat + OSI-027; first compound 0.253 µM) | relative viability (Vorinostat + OSI-027; first compound 0.8 µM) | relative viability (Vorinostat + OSI-027; first compound 2.53 µM) | relative viability (Vorinostat + OSI-027; first compound 8 µM) | relative viability (Vorinostat + Linsitinib; first compound 0.253 µM) | relative viability (Vorinostat + Linsitinib; first compound 0.8 µM) | relative viability (Vorinostat + Linsitinib; first compound 2.53 µM) | relative viability (Vorinostat + Linsitinib; first compound 8 µM) | relative viability (Vorinostat; 0.253 µM) | relative viability (Vorinostat; 0.8 µM) | relative viability (Vorinostat; 1 µM, anchor plate) | relative viability (Vorinostat; 2.53 µM) | relative viability (Vorinostat; 8 µM)
1 | 201T | 0.742 | 0.534 | 0.334 | 0.203 | 0.837 | 0.756 | 0.322 | 0.118 | 1.04 | 0.932 | 0.825 | 0.363 | 1.07 | 0.848 | 0.946 | 0.855 | 0.324
2 | A-427 | 0.182 | 0.168 | 0.134 | 0.0919 | 0.535 | 0.281 | 0.226 | 0.105 | 1.11 | 1.08 | 0.875 | 0.17 | 1.15 | 0.972 | 0.862 | 0.517 | 0.176
3 | ABC-1 | 0.203 | 0.198 | 0.18 | 0.112 | 0.491 | 0.352 | 0.159 | 0.102 | 1 | 0.505 | 0.331 | 0.106 | 1.16 | 0.707 | 1.23 | 0.32 | 0.171
4 | BEN | 0.463 | 0.441 | 0.248 | 0.0886 | 0.287 | 0.24 | 0.0754 | 0.0473 | 0.985 | 0.543 | 0.156 | 0.0466 | 1.04 | 0.678 | 0.597 | 0.248 | 0.0942
5 | CAL-12T | 0.446 | 0.246 | 0.162 | 0.109 | 0.814 | 0.746 | 0.292 | 0.0987 | 0.923 | 0.759 | 0.563 | 0.147 | 1.13 | 1.09 | 0.807 | 0.537 | 0.137
6 | COR-L23 | 0.19 | 0.0976 | 0.105 | 0.0594 | 0.842 | 0.396 | 0.151 | 0.0835 | 0.899 | 0.468 | 0.0916 | 0.0663 | 1.09 | 0.763 | 0.426 | 0.18 | 0.0822
7 | COR-L 105 | 0.458 | 0.331 | 0.245 | 0.213 | 0.839 | 0.601 | 0.319 | 0.182 | 1.1 | 1.16 | 0.394 | 0.222 | 1.42 | 0.858 | 0.868 | 0.501 | 0.237
8 | ChaGo-K-1 | 0.221 | 0.213 | 0.191 | 0.164 | 0.553 | 0.484 | 0.319 | 0.176 |  |  |  |  | 1.09 | 0.858 | 0.759 | 0.761 | 0.343
9 | EKVX | 0.39 | 0.275 | 0.194 | 0.11 | 0.623 | 0.659 | 0.39 | 0.132 | 1.14 | 1.04 | 0.515 | 0.141 | 1.09 | 1.01 | 0.77 | 0.688 | 0.175
10 | EMC-BAC-2 | 0.199 | 0.202 | 0.149 | 0.144 | 0.356 | 0.316 | 0.173 | 0.146 | 0.977 | 0.866 | 0.47 | 0.134 | 0.92 | 0.752 | 0.493 | 0.363 | 0.176
11 | EPLC-272H | 0.289 | 0.249 | 0.189 | 0.149 | 0.272 | 0.228 | 0.175 | 0.147 | 1.17 | 1.13 | 0.361 | 0.156 | 0.976 | 0.767 | 0.533 | 0.373 | 0.157
12 | H3255 | 0.705 | 0.525 | 0.277 | 0.219 | 0.669 | 0.694 | 0.478 | 0.289 | 1.01 | 0.941 | 0.589 | 0.247 | 1.02 | 1.13 | 0.791 | 0.573 | 0.286
13 | HARA | 0.139 | 0.104 | 0.0618 | 0.0739 | 0.64 | 0.213 | 0.155 | 0.0573 | 1.13 | 0.948 | 0.254 | 0.101 | 1.03 | 0.593 | 0.561 | 0.434 | 0.121
14 | HCC-15 | 0.294 | 0.219 | 0.101 | 0.0559 | 0.698 | 0.487 | 0.269 | 0.0848 | 0.87 | 0.917 | 0.514 | 0.0962 | 1.16 | 0.909 | 0.885 | 0.655 | 0.145
15 | HCC-44 | 1.1 | 0.296 | 0.184 | 0.141 | 0.611 | 0.281 | 0.103 | 0.254 | 0.727 | 0.621 | 0.167 | 0.103 | 0.995 | 0.91 | 1.09 | 0.654 | 0.161
16 | HCC-78 | 0.384 | 0.268 | 0.167 | 0.2 | 0.346 | 0.32 | 0.224 | 0.234 | 0.547 | 0.238 | 0.135 | 0.107 | 0.963 | 0.674 | 0.468 | 0.3 | 0.221
17 | HCC-366 | 0.0967 | 0.0579 | 0.033 | 0.031 | 0.979 | 0.432 | 0.146 | 0.0279 | 0.637 | 0.545 | 0.0527 | 0.0206 | 1.01 | 0.956 | 0.371 | 0.524 | 0.045

Row | Cell Line | relative viability (Vorinostat + Tozasertib; first compound 0.253 µM) | relative viability (Vorinostat + Tozasertib; first compound 0.8 µM) | relative viability (Vorinostat + Tozasertib; first compound 2.53 µM) | relative viability (Vorinostat + Tozasertib; first compound 8 µM) | relative viability (Vorinostat + OSI-027; first compound 0.253 µM) | relative viability (Vorinostat + OSI-027; first compound 0.8 µM) | relative viability (Vorinostat + OSI-027; first compound 2.53 µM) | relative viability (Vorinostat + OSI-027; first compound 8 µM) | relative viability (Vorinostat + Linsitinib; first compound 0.253 µM) | relative viability (Vorinostat + Linsitinib; first compound 0.8 µM) | relative viability (Vorinostat + Linsitinib; first compound 2.53 µM) | relative viability (Vorinostat + Linsitinib; first compound 8 µM) | relative viability (Vorinostat; 0.253 µM) | relative viability (Vorinostat; 0.8 µM) | relative viability (Vorinostat; 1 µM, anchor plate) | relative viability (Vorinostat; 2.53 µM) | relative viability (Vorinostat; 8 µM)
18 | HCC-827 | 0.5 | 0.454 | 0.236 | 0.135 | 0.923 | 0.853 | 0.743 | 0.259 | 1.01 | 1.04 | 0.837 | 0.21 | 1.15 | 1.12 | 0.882 | 0.934 | 0.416
19 | HOP-62 | 0.405 | 0.32 | 0.116 | 0.08 | 0.985 | 0.649 | 0.378 | 0.0983 | 1.17 | 0.769 | 0.528 | 0.0603 | 1.2 | 0.882 | 0.679 | 0.528 | 0.113
20 | IA-LM |  |  |  |  |  |  |  |  | 0.685 | 0.271 | 0.212 | 0.0566 | 0.976 | 0.723 | 0.963 | 0.349 | 0.0685
21 | LC-2-ad | 0.418 | 0.303 | 0.217 | 0.147 | 0.81 | 0.508 | 0.206 | 0.159 | 0.868 | 0.606 | 0.13 | 0.136 | 0.989 | 0.722 | 0.691 | 0.228 | 0.155
22 | LCLC-97TM1 | 0.19 | 0.158 | 0.159 | 0.149 | 0.444 | 0.582 | 0.249 | 0.112 |  | 0.167 | 0.144 | 0.115 | 0.979 | 1.07 | 0.711 | 0.715 | 0.1
23 | LCLC-103H | 0.377 | 0.27 | 0.162 | 0.127 | 0.545 | 0.502 | 0.429 | 0.143 | 1.18 | 0.999 | 0.597 | 0.172 | 1.08 | 0.961 | 0.781 | 0.812 | 0.272
24 | LK-2 | 0.179 | 0.178 | 0.157 | 0.125 | 0.196 | 0.169 | 0.117 | 0.103 | 0.58 | 0.328 | 0.143 | 0.0894 | 1.18 | 0.67 | 0.309 | 0.207 | 0.0969
25 | LOU-NH91 | 0.615 | 0.481 | 0.36 | 0.295 | 0.828 | 0.62 | 0.516 | 0.303 | 1.1 | 0.901 | 0.547 | 0.338 | 1.09 | 0.918 | 0.94 | 0.829 | 0.423
26 | LU99A | 0.299 | 0.259 | 0.208 | 0.213 | 0.352 | 0.276 | 0.195 | 0.164 | 0.429 | 0.465 | 0.27 | 0.117 | 1.1 | 0.809 | 0.537 | 0.513 | 0.209
27 | LXF-289 | 0.209 | 0.165 | 0.0836 | 0.0447 | 0.969 | 0.761 | 0.407 | 0.0564 | 1.03 | 0.994 | 0.391 | 0.108 | 1.1 | 1.01 | 0.791 | 0.624 | 0.195
28 | NCI-H23 | 0.275 | 0.269 | 0.105 | 0.124 | 0.595 | 0.338 | 0.329 | 0.118 | 0.866 | 0.711 | 0.21 | 0.124 | 1.14 | 0.985 | 0.653 | 0.541 | 0.136
29 | NCI-H1563 |  |  |  |  | 0.787 | 0.692 | 0.577 | 0.549 | 1.19 | 1.03 | 0.749 | 0.525 | 1.07 | 0.856 |  | 0.629 | 0.513
30 | NCI-H1650 | 0.478 | 0.293 | 0.168 | 0.152 | 0.581 | 0.36 | 0.167 | 0.145 |  |  |  |  | 1.03 | 0.758 | 0.583 | 0.325 | 0.163
31 | NCI-H1703 |  |  |  |  |  |  |  |  | 1.14 | 0.846 | 0.953 | 0.206 | 1.41 | 1.39 |  | 1.03 | 0.244
32 | NCI-H1792 |  |  |  |  | 0.776 | 0.676 | 0.511 | 0.1 | 0.57 | 0.376 | 0.148 | 0.0672 | 0.965 | 0.762 |  | 0.371 | 0.108
33 | NCI-H2170 | 0.729 | 0.462 | 0.147 | 0.155 | 0.78 | 0.759 | 0.569 | 0.144 |  |  |  |  | 1.08 | 0.969 | 0.847 | 0.539 | 0.158
34 | NCI-H2342 | 0.436 | 0.322 | 0.335 | 0.262 | 0.607 | 0.649 | 0.524 | 0.386 |  |  |  |  | 0.936 | 1.02 | 0.756 | 0.756 | 0.458
